Measured values reported in patent US20110002843A1, “METHOD OF DETECTING MYOCARDIAL DYSFUNCTION IN PATIENTS HAVING A HISTORY OF ASTHMA OR BRONCHOSPASM” (priority 2005, published 2011).

How the values were obtained:
[1] = Dose-selection study of coronary hyperemia (CBFV by Doppler guide wire) in non-asthmatic patients at cardiac catheterization; settings: for % of CBFVR at peak Mean ± SD: CBFVR set by IC adenosine
Protocol: Coronary blood flow velocity reserve (CBFVR) was established by intracoronary (IC) bolus injections of adenosine just prior to administration of binodenoson to allow a direct comparison of the magnitude of responses.
Patients presenting for cardiac catheterization were screened for eligibility and provided informed consent prior to sedation. Final eligibility was determined by the investigator during diagnostic catheterization.
Following completion of the diagnostic catheterization procedure and confirmation of all eligibility criteria, the Doppler guide wire was introduced into an accessible coronary artery and manipulated until a stable signal was obtained.
Drug administration: All usual catheterization procedural medications including IC nitroglycerin, heparin, anxiolytics and analgesics, were allowed. […] Binodenoson doses were then introduced into a peripheral vein via an indwelling catheter.
Measurements: Coronary blood flow velocity (CBFV) was measured as continuous pulsatile (systolic and diastolic) velocity (cm/sec) with the Doppler guide wire introduced via a guiding catheter. HR was derived from the ECG signal. SBP and diastolic blood pressure (DBP) were recorded directly from the catheter sheath. For each IC adenosine injection, CBFVR was calculated by dividing the peak post-injection CBFV value by the respective baseline CBFV value. Each patient's maximal calculated CBFVR was used as a benchmark to which CBFV responses to binodenoson were compared. For each binodenoson dose, baseline CBFV (post-IC adenosine), peak CBFV, time following dose start time to achieve peak CBFV and percents of CBFVR (calculated as the ratio of CBFV change from baseline following binodenoson administration vs CBFVR) at each point were calculated. Rate pressure product (RPP) and coronary vascular resistance (CVR) were derived at each time point (see formulas in Table 10). […] Vital signs were measured again approximately 3 to 4 hours after dosing or prior to hospital discharge. Patients returned for a follow-up visit 2 to 4 days following catheterization that included vital signs, an abbreviated physical examination, a 12-lead ECG, blood chemistry and hematology assessments and an assessment of any late-emerging adverse events.
Adverse events were monitored throughout the study.
Statistical analyses: All pharmacodynamic and safety data were analyzed using the intent-to-treat (ITT) population, which included all patients who received any amount of study drug. A paired t test was used to assess the significance of within-treatment differences (peak vs baseline) in CBFV, vital signs and calculated CVR and RPP; repeated comparisons were corrected using the Bonferroni-Holm method. The statistical significance of differences among treatment groups was evaluated using an analysis of variance (ANOVA) model that included treatment and investigator interactions.

[2] = target: T1, A1 adenosine receptor (Cavia porcellus, UniProt P47745); assay: Langendorff guinea pig heart preparation, prolongation of stimulus-QRS interval (negative dromotropy)
T1 sequence (P47745 1-326): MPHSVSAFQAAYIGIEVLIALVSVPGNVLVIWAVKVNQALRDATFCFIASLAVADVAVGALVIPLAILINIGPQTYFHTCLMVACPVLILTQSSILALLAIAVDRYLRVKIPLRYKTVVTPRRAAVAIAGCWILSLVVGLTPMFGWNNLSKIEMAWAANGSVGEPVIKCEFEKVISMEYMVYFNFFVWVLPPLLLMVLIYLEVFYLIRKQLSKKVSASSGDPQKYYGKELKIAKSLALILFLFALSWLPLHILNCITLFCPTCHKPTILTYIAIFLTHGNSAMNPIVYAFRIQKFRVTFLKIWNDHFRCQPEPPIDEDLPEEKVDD

[3] = In vitro metabolism with hepatocytes and microsomes; type: in vitro ADME
[4] = target: Adenosine Receptor A2B (Cavia porcellus, UniProt Z9IYO2O0X7); assay: G.P. Aortic Ring (Relaxation) bioassay; parameters: species or system guinea pig
Chain of Adenosine Receptor A2B (Z9IYO2O0X7 1-332): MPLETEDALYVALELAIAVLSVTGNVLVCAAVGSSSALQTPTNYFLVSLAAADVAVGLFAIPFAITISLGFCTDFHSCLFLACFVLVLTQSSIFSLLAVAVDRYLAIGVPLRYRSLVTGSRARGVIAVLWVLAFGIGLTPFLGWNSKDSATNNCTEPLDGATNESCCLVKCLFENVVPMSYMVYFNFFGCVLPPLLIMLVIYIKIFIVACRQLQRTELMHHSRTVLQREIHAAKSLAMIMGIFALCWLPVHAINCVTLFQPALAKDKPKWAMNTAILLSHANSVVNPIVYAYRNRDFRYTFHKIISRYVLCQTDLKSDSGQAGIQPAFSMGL
Excerpt: It is further preferable to use compounds that are selective for the A2A receptor over the A2B receptor. Additional methods are known in the art for performing bioassays and are useful to identify selectivity to the A2B receptor as well as confirming selectivity and potency in vivo. Such bioassays are typically performed prior to animal and human trials.

[5] = tested on: β-adrenergic receptors; assay: Affinity for β-adrenergic receptors; type: binding
[6] = iv infusion 0.3 μg/kg/min × 3 min
[7] = iv infusion 0.5 μg/kg/min × 3 min
[8] = iv infusion 1 μg/kg/min × 3 min

In the case of `Nc1nc(N/N=C/C2CCCCC2)nc2c1ncn2[C@@H]1O[C@H](CO)[C@@H](O)[C@H]1O` (stereo in doubt) [Binodenoson, 2-{2-[(Cyclohexyl)methylene]hydrazino}adenosine], the “maximal coronary hyperemia relative to CBFVR” value ([1]; 1.5 and 3 μg/kg doses, infused over 3 minutes or as boluses) is reported as “equivalent to CBFVR”, the “onset of coronary hyperemic responses” value ([1]; after drug administration) is reported as “evident within seconds of drug administration” and the “time for mean SBP, DBP, CVR, RPP and HR to return to near-baseline levels” value ([1]; all doses) is reported as “approximately 15 minutes”. The “time for CBFV to achieve nearly maximal levels” value ([1]; all treatment groups) was at most 3 min, the “time of mean peak CBFV response” value ([1]; all treatment groups) was at most 6 min and the “adverse events rated mild in intensity” value ([1]; both, human, in vivo) was 84%. For the same compound, the “adverse events rated moderate in intensity” value ([1]; both, human, in vivo) was 15%, the “patients with decreases in SBP <80 mmHg or DBP <45 mmHg per group” value ([1]; both, human, in vivo) was 7-15% and the “patients with hypotension (SBP decrease >20 mmHg or DBP decrease >15 mmHg) per dose group” value ([1]; both, human, in vivo) was 50-71%. For the same compound, the “serious adverse events during the study” value ([1]; both, human, in vivo) was “Seven serious adverse events occurred in 6 patients”, the “time for CBFV to return fully to baseline” value ([1]; extrapolation of the decaying CBFV responses) was at most 30 min and the ECG changes ([1]; human, in vivo) was “no adverse changes or trends in ECGs”. For the same compound, the tolerability ([1]; human, in vivo) was “well tolerated”, the “% of CBFVR at peak Range” value ([1]; iv bolus 1.5 μg/kg) was 45.8-156.6% and the “CVR Maximum (mean ± SD)” value ([1]; iv bolus 1.5 μg/kg) was 1.7 ± 0.8 cm*mmHg/sec. The “Duration (min) of hyperemia ≧85% of CBFVR Mean ± SD” value ([1]; iv bolus 1.5 μg/kg) was 7.4 ± 6.86 min, the “Duration (min) of hyperemia ≧85% of CBFVR Range” value ([1]; iv bolus 1.5 μg/kg) was 1 to 21 min and the “Peak CBFV Mean ± SD” value ([1]; iv bolus 1.5 μg/kg) was 54.0 ± 19.9 cm/sec. The “Peak CBFV Range” value ([1]; iv bolus 1.5 μg/kg) was 21-96 cm/sec, the “Time of peak CBFV Mean ± SD” value ([1]; iv bolus 1.5 μg/kg) was 4.5 ± 3.7 min and the “Time of peak CBFV Range” value ([1]; iv bolus 1.5 μg/kg) was 1 to 15 min. For the same compound, the “% of CBFVR at peak Mean ± SD” value ([1]; iv bolus 1.5 μg/kg) was 90.6 ± 23.7%, the “Duration (min) of hyperemia ≧85% of CBFVR Mean ± SD” value ([1]; iv bolus 1.5 μg/kg, listed as binodenoson) was 7.4 ± 6.86 min and the “% of CBFVR at peak Range” value ([1]; iv bolus 3 μg/kg) was 44.4-130.5%. For the same compound, the “CVR Maximum (mean ± SD)” value ([1]; iv bolus 3 μg/kg) was 1.6 ± 0.4 cm*mmHg/sec, the “Duration (min) of hyperemia ≧85% of CBFVR Mean ± SD” value ([1]; iv bolus 3 μg/kg) was 12.3 ± 9.59 min and the “Duration (min) of hyperemia ≧85% of CBFVR Range” value ([1]; iv bolus 3 μg/kg) was 2 to 39 min. For the same compound, the “Peak CBFV Mean ± SD” value ([1]; iv bolus 3 μg/kg) was 55.8 ± 14.6 cm/sec, the “Peak CBFV Range” value ([1]; iv bolus 3 μg/kg) was 35-94 cm/sec and the “Time of peak CBFV Mean ± SD” value ([1]; iv bolus 3 μg/kg) was 6.0 ± 3.8 min. For the same compound, the “Time of peak CBFV Range” value ([1]; iv bolus 3 μg/kg) was 1 to 14 min, the “% of CBFVR at peak Mean ± SD” value ([1]; iv bolus 3 μg/kg) was 99.9 ± 22.1% and the “Duration (min) of hyperemia ≧85% of CBFVR Mean ± SD” value ([1]; iv bolus 3 μg/kg, listed as binodenoson) was 12.3 ± 9.59 min. For the same compound, the “% of CBFVR at peak Range” value [1, 6] was 40.0-124.5%, the “Duration (min) of hyperemia ≧85% of CBFVR Mean ± SD” value [1, 6] was 3.1 ± 1.97 min and the “Duration (min) of hyperemia ≧85% of CBFVR Range” value [1, 6] was 1 to 8 min. The “Peak CBFV Mean ± SD” value [1, 6] was 55.2 ± 21.0 cm/sec, the “Peak CBFV Range” value [1, 6] was 17-122 cm/sec and the “Time of peak CBFV Mean ± SD” value [1, 6] was 4.3 ± 2.8 min. For the same compound, the “Time of peak CBFV Range” value [1, 6] was 1 to 12 min, the “% of CBFVR at peak Mean ± SD” value [1, 6] was 83.5 ± 19.4% and the “CVR Maximum (mean ± SD)” value ([1]; iv infusion 0.3 μg/kg/min × 3 min, CVR = ([SBP − DBP]/3 + DBP)/CBFV) was 1.7 ± 0.6 cm*mmHg/sec. The “% of CBFVR at peak Range” value [1, 7] was 52.2-288.1%, the “CVR Maximum (mean ± SD)” value [1, 7] was 1.9 ± 0.7 cm*mmHg/sec and the “Duration (min) of hyperemia ≧85% of CBFVR Mean ± SD” value [1, 7] was 5.3 ± 4.53 min. For the same compound, the “Duration (min) of hyperemia ≧85% of CBFVR Range” value [1, 7] was 1 to 14 min, the “Peak CBFV Mean ± SD” value [1, 7] was 49.6 ± 20.4 cm/sec and the “Peak CBFV Range” value [1, 7] was 26-135 cm/sec. The “Time of peak CBFV Mean ± SD” value [1, 7] was 5.4 ± 5.9 min, the “Time of peak CBFV Range” value [1, 7] was 1 to 30 min and the “% of CBFVR at peak Mean ± SD” value [1, 7] was 95.0 ± 40.4%. The “% of CBFVR at peak Range” value [1, 8] was 66.5-144.5%, the “CVR Maximum (mean ± SD)” value [1, 8] was 1.7 ± 0.6 cm*mmHg/sec and the “Duration (min) of hyperemia ≧85% of CBFVR Mean ± SD” value [1, 8] was 10.9 ± 8.54 min. The “Duration (min) of hyperemia ≧85% of CBFVR Range” value [1, 8] was 1 to 24 min, the “Peak CBFV Mean ± SD” value [1, 8] was 53.1 ± 14.8 cm/sec and the “Peak CBFV Range” value [1, 8] was 29-81 cm/sec. The “Time of peak CBFV Mean ± SD” value [1, 8] was 5.8 ± 3.8 min, the “Time of peak CBFV Range” value [1, 8] was 1 to 13 min and the “% of CBFVR at peak Mean ± SD” value [1, 8] was 100.9 ± 22.1%. The EC50 [2] was 3.5 µM, the metabolic activity [3] was “low metabolic activity” and the EC50 [4] was 44.7 µM. For the same compound, the affinity [5] was “no affinity”.
